The target in one series is T1, human CB1 receptor (Homo sapiens, UniProt P21554).
T1 construct: purchased Perkin Elmer/NEN; host or cells: HEK-293 cells, stably transfected (membranes)
Kind of series: Adenylylcyclase assay: forskolin-activated cAMP in CB1 transfected HEK-293 cells. The format is cell-based. As for the experimental part: Cannabinoids and derivatives bind to G-protein-coupled CB1 and CB2 receptors and exert their activity via the inhibition of adenylylcyclase activity. An adenylylcyclase assay forms a basis for the functional analysis of the compounds by determining their capacity to inhibit or promote forskolin-activated cAMP production. The assay is carried out according to Chin et al. (Chin, C. N. et al., J. Neurochem. 70: 366-73, 1998). Briefly, HEK-293 human kidney cells (ATCC#CRL-1573) stably transfected with either the human CB1 or CB2 receptor (cDNA) were grown in DMEM supplemented with 10% fetal calf serum, 1% Penicillin-Streptomycin and 2 mM L-glutamine. Cells were seeded in 24 wells plate at 5×10^4 cells/well and incubated for 48 hours. Medium was then removed and the adherent cells were washed with PBS. Two hundred μl of serum free medium supplemented with 0.2 mM Ro 20-1724, 0.25% BSA, and 20 mM HEPES was then added to each well. The cells were then activated with 1 μM forskolin in presence of the bicyclic test compounds in concentrations ranging from 10 pM up to 1 μM. The activated cells were then incubated at 37° C. for 20 minutes and the reaction terminated with 1.2 M HCl to a final concentration of 0.1 M. Cells were lyzed by freeze and thaw and the lysate was neutralized with 2 M HEPES, pH 7.5. cAMP was measured in 50 μl aliquots using the [^3H]-cAMP assay system (Amersham).
This experiment was first performed on CB2 receptor transfected cells.

For a further series, the system named is ICR male mice. Kind of series: Development of tolerance on repeated administration, tail flick model. The following applies: 10 mg/kg twice daily i.p. As for the experimental part: ICR male mice (20-30 g average body weight, Harlan, Israel) were injected i.p. at the volume dose of 5 ml/kg. Each treatment group contained at least 6 animals. Morphine HCl was used as positive control at the final dose of 5 mg/kg. Its vehicle, saline, was also included as control. The test compounds were dissolved in CREMOPHOR EL®:ethanol and diluted 1:20 in saline prior to injection, this second type of vehicle was also included as negative control. The final dose injected varied from 0.1 to 10 mg/kg. At predetermined time points after treatment injection, the animals were placed in the tail flick system (Socrel, model DS 20). Animals were gently held while their tails were located above the photoelectric cell. The tails were then illuminated (21V) at 2 cm from the distal tip and the latency time, measured in seconds, was recorded in duplicates. At the end of the study, the animals were euthanized by i.p. injection of 100 mg/kg sodium pentobarbitone.
Tolerance was assessed in the tail flick model above described. Briefly, the test compounds were administered twice daily i.p. for up to 10 days to groups of 10 animals each. The noxious pain threshold was measured as previously described in example 13 thirty minutes after the first drug administration on days 1, 4, 8 and 10. Results are expressed as mean latency time till the animal flicked its tail±SE. The differences between the latency times or the % of animals showing analgesia among various treatment groups was analyzed by analysis of variance (ANOVA) followed by post-hoc Tukey's test (for latency) or Fisher's exact test (for % animals). A value of p<0.05 is considered to be statistically significant.

A further series deals with Sprague Dawley male rats. Kind of series: Tail flick model, i.v. The format is in vivo, rat. The following applies: for % animals with latency time twice superior to vehicle: ninety minutes. As for the experimental part: Each treatment group contained at least 6 animals. […] Its vehicle, saline, was also included as control.
Two parameters were used to analyze the results, the latency time and the % of animals showing analgesia. […] The results in both cases are expressed as mean±SE.
Similar studies were performed in Sprague Dawley male rats where the drug was injected i.v. instead of i.p. in the mice model. […] These observations are consistent with the route of administration. In the i.p. study the first time point post-injection was 30 minutes, while it was 10 minutes following i.v. injection thus the onset of action was not thoroughly determined in these experiments. […] At the last time point tested (330 minutes following injection), almost 70% of the animals treated with 4 mg/kg of compound A retained increase resistance to pain.

SMILES strings stand for the structures.

By IC50 is commonly meant the concentration that inhibits the measured activity by half. Read a low IC50 as greater potency in that assay. For orientation: inhibition means the change of the read-out against control, counted positive when it falls.

T1 sequence (P21554 whole entry): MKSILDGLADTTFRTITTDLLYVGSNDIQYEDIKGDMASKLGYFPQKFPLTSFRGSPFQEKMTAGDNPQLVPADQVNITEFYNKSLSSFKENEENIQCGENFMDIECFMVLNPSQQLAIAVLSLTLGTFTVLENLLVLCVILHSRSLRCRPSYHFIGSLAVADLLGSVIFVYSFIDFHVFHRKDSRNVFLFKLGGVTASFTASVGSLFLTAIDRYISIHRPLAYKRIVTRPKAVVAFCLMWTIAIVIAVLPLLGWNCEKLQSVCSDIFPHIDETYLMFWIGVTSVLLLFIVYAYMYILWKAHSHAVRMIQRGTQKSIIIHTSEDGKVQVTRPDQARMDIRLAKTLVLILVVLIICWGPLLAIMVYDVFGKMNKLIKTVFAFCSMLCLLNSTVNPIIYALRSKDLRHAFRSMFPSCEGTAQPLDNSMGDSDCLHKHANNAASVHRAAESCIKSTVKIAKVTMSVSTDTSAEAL

Regarding `CCCCCCC(C)(C)c1cc(O)c(C2CC(=O)C3CC2C3(C)C)c(O)c1` (single isomer, unassigned; (-)) [Compound A, (−)-4-[4-(1,1-Dimethyl-heptyl)2,6-dihydroxy-phenyl]-6,6-dimethyl-bicyclo[3.1.1)heptan-2-one], the IC50 against human CB1 receptor is 10.3 nM. Also, the inhibition at 1 µM on human CB1 receptor (HEK293, CB1 transfected HEK-293, 1 μM forskolin, read-out: maximal inhibition at 1 μM) amounted to 69%. Besides, the development of tolerance result in the series with ICR male mice (20 administrations) is on record as “did not cause the development of tolerance”. In addition, the figures for the “% of animals showing increased analgesia” value in the series with ICR male mice (day 10) and with ICR male mice (day one) were 80% and 88%, respectively. Also, the latency time with ICR male mice (day 10) came to 7 s; with ICR male mice (day one) it was 8.1 s. Besides, the “% animals with latency time twice superior to vehicle” value with Sprague Dawley male rats (3 mg/kg i.v.) and with Sprague Dawley male rats (4 mg/kg i.v.) was 100% throughout. Further, the “% animals with increased resistance to pain” value with Sprague Dawley male rats (4 mg/kg i.v., 330 minutes) is roughly 70%.

Source of the values: US20050020544A1, “Bicyclic CB2 cannabinoid receptor ligands” (priority 2002, published 2005).
